The subject of assay [1] is Plasmodium falciparum. Briefly: Growth inhibition of Plasmodium falciparum FCB125. The format is functional, organism-based.
A further assay relates to NCI-H522. Briefly: The compound was evaluated for its ability to inhibit growth of non small cell lung cancer ([…] cell line). Format: functional. Conditions: Homo sapiens.
Assay [2] has as its system AIK-T4. Briefly: (§1) The compound was evaluated for toxicity against HIV infected T4 lymphocytes. Format: functional, cell-based. Conditions: Homo sapiens.
For assay [3], the system named is AIK-T4. Described as §1. The format is functional. To be noted: Homo sapiens.
In assay [4] the test system is Plasmodium falciparum. Briefly: Growth inhibition of chloroquine-resistant Plasmodium falciparum. The format is functional, organism-based.
In assay [5] the test system is Plasmodium falciparum. Description: Growth inhibition of pyrimethamine-resistant Plasmodium falciparum. The format is functional, organism-based.

Bounds are passed on as bounds.

As for `NC1=NCN=C2C1N=CN2C1O[C@H](CSCC(F)F)[C@@H](O)[C@H]1O` (some centres undefined), in the assay on Plasmodium falciparum [1], the IC50 (as a rule, the concentration that inhibits the measured activity by half) worked out at 0.025 µM.
Consider `NC1=NCN=C2C1N=CN2C1O[C@H](CSCC(F)(F)F)[C@@H](O)[C@H]1O` (some centres undefined), for which, in the assay on NCI-H522, the GI50 (as a rule, the concentration giving 50% growth inhibition) is 45 µM. Besides, the IC50 in the assay on Plasmodium falciparum [1] is 0.085 µM; in the assay with AIK-T4 [2] it was 0.245 µM.
Regarding `NC1=NCN=C2C1N=CN2C1O[C@H](CSC(F)(F)F)[C@@H](O)[C@H]1O` (some centres undefined), half-maximal inhibition with Plasmodium falciparum [1] (IC50) was put at 0.018 µM. Further, it took 0.117 µM to inhibit growth in the assay with AIK-T4 [3] by half (GI50).
In the case of `NC1=NCN=C2C1N=CN2C1O[C@H](CSCCF)[C@@H](O)[C@H]1O` (some centres undefined), the 50% inhibitory concentration (IC50) in the assay with Plasmodium falciparum [1] turned out to be 0.043 µM.
On to `OC1OC(CSC(F)(F)F)C(O)C1O` (centres undefined), for which the IC50 in the assay on Plasmodium falciparum [1] was above 100 µM; in the assay on Plasmodium falciparum [4] it was above 100 µM; in the assay with Plasmodium falciparum [5], 50 µM.
`OC1O[C@H](CSC(F)F)[C@@H](O)[C@H]1O` (some centres undefined): the IC50 in the assay on Plasmodium falciparum [1] is above 100 µM.
For `NC1=NCN=C2C1N=CN2C1O[C@H](CSC(F)F)[C@@H](O)[C@H]1O` (some centres undefined), in the assay on NCI-H522, it took 86 µM to inhibit growth by half (GI50). The concentration for half-maximal inhibition (IC50) with Plasmodium falciparum [1] was 35 µM; in the assay on AIK-T4 [2], 222 µM.

The values above are taken from ChEMBL document CHEMBL1125960, “Synthesis and biological activity of fluorinated intermediates of the methionine salvage pathway” (Bioorg Med Chem Lett, 1991).
